One test deals with CTB. The note with it: LeY-CTB binding, secondary binding site; cited from earlier work.
A further test deals with cholera toxin B-subunit (Vibrio cholerae serotype O1, UniProt P01556). As to the kind of experiment: biochemical. It is filed as binding.
Test [1] deals with CT-induced swelling of intestinal organoids. The experiment in a line: cells. The format is cell-based, human.

Values joined by “and” are separate entries in the source; they are usually repeats but may differ in a detail not shown here. Identical values can stand only once.

Sequence of cholera toxin B-subunit (P01556 22-124 limits assumed): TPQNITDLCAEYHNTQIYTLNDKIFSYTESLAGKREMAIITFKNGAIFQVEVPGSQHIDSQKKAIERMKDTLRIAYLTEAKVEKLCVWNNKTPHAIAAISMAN

The Kd is the concentration at which binding is half-saturated. Consider `CC(=O)N[C@@H]1[C@@H](O[C@@H]2O[C@@H](C)[C@@H](O)[C@@H](O)[C@@H]2O)[C@H](O[C@@H]2O[C@H](CO)[C@H](O)[C@H](O)[C@H]2O[C@@H]2O[C@@H](C)[C@@H](O)[C@@H](O)[C@@H]2O)[C@@H](CO)O[C@H]1O` [LeY], for which the Kd at CTB is 1.4 mM.

The term IC50 denotes the concentration that gives 50% inhibition. Consider `O=C[C@H](O)[C@@H](O)[C@@H](O)[C@H](O)CO` [galactose], for which the rel. pot. (on cholera toxin B-subunit; in test [1]) was 1 each time. In addition, the “rel. pot. per sugar” value (at cholera toxin B-subunit; in test [1]) was 1 throughout. For the same molecule, the IC50 was 111 mM against cholera toxin B-subunit (IC50 (μg/mL)); 100 mM and 18000 µg/mL in test [1] (Homo sapiens).

These data come from PMC6429436 (Bioconjugate Chemistry, 2019).
